According to ChEMBL document CHEMBL1121871, “Azaprostaglandin analogues. Synthesis and biological properties of 11-azaprostaglandin derivatives” (1981):
Calls of active or inactive are those of the source. The rule behind the calls is not given here.

Key:
[1] = species on record: Rattus norvegicus; experiment: Compound was tested for its activity to stimulate rat uterus at concentration of 2-10 e-6 g/mL; Showed very little stimulation; assay type: functional, organism-based
[2] = Compound was evaluated for the potency ratio in anesthetized rats; assay type: functional
[3] = species on record: Rattus norvegicus; experiment: Tested for enhancement against rythemice contractions and tone of rat portal vein at concentrations ranging from 2*10e-6-1*10e-5 g/mL; Active; assay type: functional, organism-based
[4] = species on record: Cavia porcellus; experiment: Tested for activity of the 250 ng/ml compound to inhibit ADP-induced aggregation in guinea pig platelet rich plasma; Inactive; assay type: functional, organism-based

CCCCC[C@@H](O)/C=C/[C@H]1NC(=O)C[C@@H]1CCCCCCC(=O)O
Activity [1]: very little stimulation | Potency Ratio [2]: 0.13 | Enhancement [3]: Active | inhibition [4]: inactive
